Species: Rattus norvegicus
Test: DrugMatrix - Regimen: Daily Repeat
Assay type: toxicity, organism-based, Sprague-Dawley
Set-up: regimen Daily Repeat, gender Male, age 6-8 weeks
Conditions: in vivo, po, route oral GAVAGE, vehicle .5 % CMC; for URIC ACID / ALANINE AMINOTRANSFERASE / ALBUMIN / ALKALINE PHOSPHATASE / ASPARTATE AMINOTRANSFERASE / BLOOD UREA NITROGEN / CARBON DIOXIDE / CHLORIDE / CHOLESTEROL / CREATINE PHOSPHOKINASE / CREATININE / GLUCOSE / LACTATE DEHYDROGENASE / LIPASE / PHOSPHORUS / POTASSIUM / SODIUM / TOTAL BILIRUBIN / TOTAL PROTEIN: tissue Plasma; for ABSOLUTE BASOPHIL / ABSOLUTE EOSINOPHIL / ABSOLUTE LYMPHOCYTE / ABSOLUTE MONOCYTE / ABSOLUTE SEGMENTED NEUTROPHIL / BASOPHIL / EOSINOPHIL / ERYTHROCYTE COUNT / HEMATOCRIT / HEMOGLOBIN / LEUKOCYTE COUNT / LYMPHOCYTE / MEAN CORPUSCULAR HEMOGLOBIN / MEAN CORPUSCULAR HEMOGLOBIN CONCENTRATION / MEAN CORPUSCULAR VOLUME / MONOCYTE / NEUTROPHIL / NUCLEATED RED BLOOD CELLS / PLATELET COUNT: tissue Blood
[1] = 10 mg/kg, 120 h, dose level Low, time 5 day
[2] = 400 mg/kg, 72 h, dose level High, time 3 day
[3] = 400 mg/kg, 120 h, dose level High, time 5 day

CC(C)(C#N)c1cc(Cn2cncn2)cc(C(C)(C)C#N)c1 [ANASTROZOLE]
URIC ACID (10 mg/kg, 72 h, dose level Low, time 3 day): 1.33 mg/dL | ABSOLUTE BASOPHIL [1]: 0 CELLS/uL | ABSOLUTE EOSINOPHIL [1]: 0 CELLS/uL | ABSOLUTE LYMPHOCYTE [1]: 12980 CELLS/uL | ABSOLUTE MONOCYTE [1]: 0 CELLS/uL | ABSOLUTE SEGMENTED NEUTROPHIL [1]: 1020 CELLS/uL | BASOPHIL [1]: 0% | EOSINOPHIL [1]: 0% | ERYTHROCYTE COUNT [1]: 5.49 x10E6/uL | HEMATOCRIT [1]: 34.93% | HEMOGLOBIN [1]: 13.93 G/DL | LEUKOCYTE COUNT [1]: 14 x10E3/uL | LYMPHOCYTE [1]: 92.67% | MEAN CORPUSCULAR HEMOGLOBIN [1]: 25.4 pg | MEAN CORPUSCULAR HEMOGLOBIN CONCENTRATION [1]: 39.87 G/DL | MEAN CORPUSCULAR VOLUME [1]: 63.57 fL | MONOCYTE [1]: 0% | NEUTROPHIL [1]: 7.33% | NUCLEATED RED BLOOD CELLS [1]: 0 /100WBC | PLATELET COUNT [1]: 1087.67 x10E3/uL | ALANINE AMINOTRANSFERASE [1]: 48 u/L | ALBUMIN [1]: 4.1 G/DL | ALKALINE PHOSPHATASE [1]: 364.67 u/L | ASPARTATE AMINOTRANSFERASE [1]: 77.33 u/L | BLOOD UREA NITROGEN [1]: 18.33 mg/dL | CARBON DIOXIDE [1]: 26 mmol/L | CHLORIDE [1]: 103 MEQ/L | CHOLESTEROL [1]: 60.67 mg/dL | CREATINE PHOSPHOKINASE [1]: 224.33 u/L | CREATININE [1]: 0.14 mg/dL | GLUCOSE [1]: 146 mg/dL | LACTATE DEHYDROGENASE [1]: 164 u/L | LIPASE [1]: 9.33 u/L | PHOSPHORUS [1]: 13.6 mg/dL | POTASSIUM [1]: 7.31 MEQ/L | SODIUM [1]: 142.23 MEQ/L | TOTAL BILIRUBIN [1]: 0.2 mg/dL | TOTAL PROTEIN [1]: 5.87 G/DL | URIC ACID [1]: 1.9 mg/dL | ABSOLUTE BASOPHIL [2]: 0 CELLS/uL | ABSOLUTE EOSINOPHIL [2]: 0 CELLS/uL | ABSOLUTE LYMPHOCYTE [2]: 16859 CELLS/uL | ABSOLUTE MONOCYTE [2]: 135.33 CELLS/uL | ABSOLUTE SEGMENTED NEUTROPHIL [2]: 1372.33 CELLS/uL | BASOPHIL [2]: 0% | EOSINOPHIL [2]: 0% | ERYTHROCYTE COUNT [2]: 5.62 x10E6/uL | HEMATOCRIT [2]: 34.7% | HEMOGLOBIN [2]: 13.6 G/DL | LEUKOCYTE COUNT [2]: 18.37 x10E3/uL | LYMPHOCYTE [2]: 91.67% | MEAN CORPUSCULAR HEMOGLOBIN [2]: 24.17 pg | MEAN CORPUSCULAR HEMOGLOBIN CONCENTRATION [2]: 39.17 G/DL | MEAN CORPUSCULAR VOLUME [2]: 61.7 fL | MONOCYTE [2]: 0.67% | NEUTROPHIL [2]: 7.67% | NUCLEATED RED BLOOD CELLS [2]: 0.33 /100WBC | PLATELET COUNT [2]: 1228.33 x10E3/uL | ALANINE AMINOTRANSFERASE [2]: 89 u/L | ALBUMIN [2]: 4.27 G/DL | ALKALINE PHOSPHATASE [2]: 433 u/L | ASPARTATE AMINOTRANSFERASE [2]: 126 u/L | BLOOD UREA NITROGEN [2]: 17.33 mg/dL | CARBON DIOXIDE [2]: 28.33 mmol/L | CHLORIDE [2]: 98.33 MEQ/L | CHOLESTEROL [2]: 69.33 mg/dL | CREATINE PHOSPHOKINASE [2]: 255 u/L | CREATININE [2]: 0.3 mg/dL | GLUCOSE [2]: 143 mg/dL | LACTATE DEHYDROGENASE [2]: 237 u/L | LIPASE [2]: 11.33 u/L | PHOSPHORUS [2]: 11.7 mg/dL | POTASSIUM [2]: 7.49 MEQ/L | SODIUM [2]: 141.93 MEQ/L | TOTAL BILIRUBIN [2]: 0.17 mg/dL | TOTAL PROTEIN [2]: 5.87 G/DL | URIC ACID [2]: 1.83 mg/dL | ABSOLUTE BASOPHIL [3]: 0 CELLS/uL | ABSOLUTE EOSINOPHIL [3]: 0 CELLS/uL | ABSOLUTE LYMPHOCYTE [3]: 11924.33 CELLS/uL | ABSOLUTE MONOCYTE [3]: 19.67 CELLS/uL | ABSOLUTE SEGMENTED NEUTROPHIL [3]: 1989.33 CELLS/uL | BASOPHIL [3]: 0% | EOSINOPHIL [3]: 0% | ERYTHROCYTE COUNT [3]: 5.98 x10E6/uL | HEMATOCRIT [3]: 35.47% | HEMOGLOBIN [3]: 14.6 G/DL | LEUKOCYTE COUNT [3]: 13.93 x10E3/uL | LYMPHOCYTE [3]: 82% | MEAN CORPUSCULAR HEMOGLOBIN [3]: 24.43 pg | MEAN CORPUSCULAR HEMOGLOBIN CONCENTRATION [3]: 41.17 G/DL | MEAN CORPUSCULAR VOLUME [3]: 59.37 fL | MONOCYTE [3]: 0.33% | NEUTROPHIL [3]: 17.67% | NUCLEATED RED BLOOD CELLS [3]: 0.67 /100WBC | PLATELET COUNT [3]: 1447 x10E3/uL | ALANINE AMINOTRANSFERASE [3]: 478.67 u/L | ALBUMIN [3]: 4.53 G/DL | ALKALINE PHOSPHATASE [3]: 622.67 u/L | ASPARTATE AMINOTRANSFERASE [3]: 1130.67 u/L | BLOOD UREA NITROGEN [3]: 22 mg/dL | CARBON DIOXIDE [3]: 21.33 mmol/L | CHLORIDE [3]: 99.33 MEQ/L | CHOLESTEROL [3]: 88.33 mg/dL | CREATINE PHOSPHOKINASE [3]: 445.67 u/L | CREATININE [3]: 0.46 mg/dL | GLUCOSE [3]: 115 mg/dL | LACTATE DEHYDROGENASE [3]: 826.67 u/L | LIPASE [3]: 14.33 u/L | PHOSPHORUS [3]: 11.97 mg/dL | POTASSIUM [3]: 6.47 MEQ/L | SODIUM [3]: 142.23 MEQ/L | TOTAL BILIRUBIN [3]: 0.17 mg/dL | URIC ACID [3]: 2.23 mg/dL
